{
  "source": "patent US20070225245A1",
  "about": "“Viral vector driven mutant bacterial cytosine deaminase gene and uses thereof” (priority 1998, published 2007)",
  "key": {"D54MG xenografts": {"test_system": "D54MG xenografts", "test": "Subcutaneous human glioma xenograft model, tumor growth", "type": "in vivo, athymic nude mice", "method": "(§1) Treatment was started at the time of established tumor growth (Day 0 equal to 14 days after tumor cell injection). Animals were infected i.t. with 1×10^8 TCID50 AdbCDwt or AdbCD-D314A on Days 0, 7, and 14, and then irradiated with 2 Gy on Days 4, 7 and 10. 5-FC was injected i.p. at 500 mg/kg on Days 0 to 4, 7 to 11, and 14 to 18. Data points represent the mean change in tumor surface area relative to Day 0 for each group of animals.\nas §1, with “to 17” for “to 14”, “TCID50” for “TCID50 AdbCDwt or”, “and” for “and then”, “with 5” for “with 2”\nTo assess anti-tumor effects on established solid tumors, D54MG glioma cells (2×10^7) were injected s.c. into female athymic nude mice. Treatment was started 14 days post-tumor cell injection at the time of established tumor growth (tumors were 6-8 mm in diameter), noted as Day 0. […] Tumor size was monitored twice a week with Vernier calipers. Tumor surface area (length×width in mm^2) was calculated for each group of 10 mice and plotted as a percentage change over time relative to the mean size on Day 0 for each group."}, "Panc2.03 xenografts": {"test_system": "Panc2.03 xenografts", "test": "Subcutaneous human pancreatic tumor xenograft, tumor growth", "type": "in vivo, athymic nude mice", "settings": "PBS plus 5-FC", "method": "Animals were injected i.t. with 1×10^7 TCID50 of AdbCD-D314A or 1×10^8 TCID50 of AdbCDwt on Days 0, 7, and 14. 5-FC was administered i.p. at 400 mg/kg qd×5/week for 3 weeks starting on Day 1. Data points represent the mean change in tumor surface area relative to Day 0 for each group of animals.\nTo compare anti-tumor effects of AdbCD-D314A and AdbCDwt mediated molecular chemotherapy on established solid tumors, 7×10^6 Panc2.03 pancreatic cancer cells were injected s.c. into female athymic nude mice. Treatment was started 11 days post-tumor cell injection at the time of established tumor growth (tumors were 6-8 mm in diameter), noted as Day 0. Animals were randomly divided into groups receiving different treatments: 1) AdbCDwt plus 5-FC; 2) AdbCD-D314A plus 5-FC; 3) AdbCD-D314A plus PBS; 4) PBS plus 5-FC. Mice were injected i.t. with 1×10^8 TCID50 per tumor AdbCDwt or with 1×10^7 TCID50 AdbCD-D314A on Days 0, 7, and 14. Three groups of mice (# 1, 2 and 4) received 5-FC i.p. at 400 mg/kg on Days 1 to 5, 8 to 12, and 15 to 19."}, "[1]": {"test_system": "Intracranial U87MG gliomas", "test": "Survival, intracranial glioma, HSV and 5-FC", "type": "in vivo, SCID mice", "settings": "saline plus 5-FC", "method": "Two days later, mice were begun on twice daily intraperitoneal injections of saline (1 ml) or 5-FC (500 mg/kg). Mice were followed for survival.\nStudies were undertaken to determine the efficacy of the HSV construct, M012, in in vivo murine glioma models. […] The median survival of animals receiving saline plus 5-FC was 34 days. In a similar study with the D54MG intracranial model, median survival of mice injected intratumorally with M012 and administered 5-FC was 40 days, compared to 27 days with M012 plus saline and 19 days with saline and 5-FC (FIG. 14)."}, "S2-VP10": {"test_system": "S2-VP10", "test": "Crystal violet cytotoxicity assay (5-FU, or 5-FC after Ad infection)", "type": "cell-based", "settings": "Homo sapiens, 120 h, 5 days", "description": "(§2) Twenty-four hours later cells were infected with AdbCD-D314A or AdbCDwt at various MOI."}, "Panc2.03": {"test_system": "Panc2.03", "test": "Crystal violet cytotoxicity assay (5-FU, or 5-FC after Ad infection)", "type": "cell-based", "settings": "Homo sapiens, Panc203, 120 h, 5 days", "description": "as §2"}, "BXPC-3": {"test_system": "BXPC-3", "test": "Crystal violet cytotoxicity assay (5-FU, or 5-FC after Ad infection)", "type": "cell-based", "settings": "Homo sapiens, 120 h, 5 days", "description": "as §2"}, "PANC-1": {"test_system": "PANC-1", "test": "Crystal violet cytotoxicity assay (5-FU, or 5-FC after Ad infection)", "type": "cell-based", "settings": "Homo sapiens, 120 h, 5 days", "description": "as §2"}, "D54MG": {"test_system": "D54MG", "test": "Crystal violet cytotoxicity assay (5-FU, or 5-FC after Ad infection)", "type": "cell-based", "settings": "Homo sapiens, 120 h, 5 days", "description": "as §2"}, "S2-013": {"test_system": "S2-013", "test": "Crystal violet cytotoxicity assay (5-FU, or 5-FC after Ad infection)", "type": "cell-based", "settings": "Homo sapiens, 120 h, 5 days", "description": "as §2"}, "MIA PaCa-2": {"test_system": "MIA PaCa-2", "test": "Crystal violet cytotoxicity assay (5-FU, or 5-FC after Ad infection)", "type": "cell-based", "settings": "Homo sapiens, 120 h, 5 days", "description": "as §2"}, "U251MG": {"test_system": "U251MG", "test": "Crystal violet cytotoxicity assay (5-FU, or 5-FC after Ad infection)", "type": "cell-based", "settings": "Homo sapiens, U-251, 120 h, 5 days", "description": "as §2"}, "U87MG": {"test_system": "U87MG", "test": "Crystal violet cytotoxicity assay (5-FU, or 5-FC after Ad infection)", "type": "cell-based", "settings": "Homo sapiens, U-87 MG, 120 h, 5 days", "description": "as §2"}},
  "data": [
    {"smiles": "Nc1nc(=O)[nH]cc1F", "note": "[5-FC, 5-fluorocytosine]", "values": [
      {"measurement": "mean time to tumor doubling", "setting": "D54MG xenografts; 5-FC alone", "value": 13, "unit": "days"},
      {"measurement": "mean time to tumor doubling", "setting": "D54MG xenografts; 5-FC plus radiation (3×2 Gy)", "value": 15, "unit": "days"},
      {"measurement": "mean time to tumor doubling", "setting": "Panc2.03 xenografts", "value": 22, "unit": "days"},
      {"measurement": "median survival", "setting": "[1]", "value": 34, "unit": "days"}
    ]},
    {"smiles": "O=c1[nH]cc(F)c(=O)[nH]1", "note": "[5-FU, 5-fluorouracil]", "values": [
      {"measurement": "IC50", "setting": "S2-VP10", "value": "2.7 ± 0.1", "unit": "µg/mL"},
      {"measurement": "IC50", "setting": "Panc2.03", "value": 12.4, "unit": "µg/mL"},
      {"measurement": "IC50", "setting": "BXPC-3", "value": 0.1, "unit": "µg/mL"},
      {"measurement": "IC50", "setting": "PANC-1", "value": "1.5 ± 0.5", "unit": "µg/mL"},
      {"measurement": "IC50", "setting": "D54MG", "value": "3.9 ± 0.8", "unit": "µg/mL"},
      {"measurement": "IC50", "setting": "S2-013", "value": "0.5 ± 0.1", "unit": "µg/mL"},
      {"measurement": "IC50", "setting": "MIA PaCa-2", "value": 1.4, "unit": "µg/mL"},
      {"measurement": "IC50", "setting": "U251MG", "value": "2.5 ± 1.2", "unit": "µg/mL"},
      {"measurement": "IC50", "setting": "U87MG", "value": "0.9 ± 0.5", "unit": "µg/mL"}
    ]}
  ]
}
